The assay relates to mouse primary DRG neurons. As to the kind of experiment: Neurite outgrowth assay of DRG neurons (image-based HCS) against paclitaxel-induced neurotoxicity. The class given is cell-based. The conditions noted are these: for activation at 1 µM: Mus musculus, DRG neuron; for protective efficacy against paclitaxel-induced neurotoxicity (in words): pretreated, + 50 nM paclitaxel. Here is the method:
All these 19 compounds were then subjected to the neurite outgrowth assay of dorsal root ganglion (DRG) neurons paired with an image-based HCS to analyze whether they had neuroprotective potential. Quantification of neurite outgrowth under different regimens is shown in Figure 3, wherein DRG neurons incubated in 50 nM paclitaxel could cause 60% reduction in neurite outgrowth compared to the control (no drug treatment). […] Taken together, CN016 is selected as a promising lead for further development.
Primary cortical or DRG cells were fixed with 4% paraformaldehyde for 15 min following compound and paclitaxel treatment. After washing with PBS, the fixed cells were permeabilized with PBS containing 0.05% Triton X-100 for 20 min and then blocked with commercial blocking buffer (#GTX30963; GeneTex, USA) at room temperature for 1 h. Subsequently, the cortical cells were stained for the extending processes and synaptic puncta by using anti-MAP2 (#MBS502140, 1:500; Mybiosource, USA) and anti-synaptophysin (#ab32127, 1:500; Abcam, UK) overnight. DRG cells were stained for the neurite and neuron nucleus by using anti-β III tubulin (#D71G9, 1:600; Cell Signaling, USA) and anti-NeuN monoclonal antibody (#MAB377, 1:400; Millipore, USA) overnight. On the second day, the samples were washed for 30 min with wash buffer and incubated with secondary antibodies (Alexa-488, 647 1:600; Thermo Fisher, USA) and 4 μg/mL Hoechst 33258 (#94403-1ML, 1:100; Merck, USA) at room temperature for 1 h. In the initial experiments of screening the potential neuroprotective compound for CIPN, ImageXpress^Micro (IXM) high-content imaging system (Molecular Devices, USA) driven by MetaXpress software was used. Images of treated cells were automatically acquired by using a 10× objective. Twenty-one images per well were taken in each of three channels (DAPI, FITC, and Cy5) to create a whole view of the entire neural network. The integrity of the neural network was evaluated using TIF images by importing them into MetaXpress software for analysis using the module for multiparameter, such as Neurite Outgrowth, Cell Scoring, and Transfluor. Furthermore, the score of synaptogenesis was analyzed in AcuityXpress software (Molecular Devices, USA).

Setting [1] is: Table 1, A: neurite outgrowth (% of control) of test compound 1000 nM + paclitaxel 50 nM, B: paclitaxel 50 nM alone, DRG neurons, read-out: Neuroprotection rate = (A-B)±S.E.M [%].
[2] abbreviates: supplementary CSV, test compound 1000 nM, read-out: A-B (A: neurite outgrowth (% of control) of test compound (1000 nM) + paclitaxel (50 nM), B: of paclitaxel (50 nM)).
Where [3] appears, read: Table S2, test compound 1000 nM + paclitaxel 50 nM minus paclitaxel 50 nM, read-out: Neuroprotection rate = (A-B) ± S.E.M [%].

From paper PMC8958505, “Discovery of Potential Neuroprotective Agents against Paclitaxel-Induced Peripheral Neuropathy” (Journal of Medicinal Chemistry, 2022) come the findings set out here.

Where a name gives a salt, the structure may show the parent alone. Read-outs that look alike come from different tables or passages of the source.

On to `O=P(O)(O)CCN1CCC(Nc2cc(N3CCOCC3)nc(NCc3cn(CCCCO)nn3)n2)CC1` [CN021, {2-[4-(2-{[1-(4-Hydroxy-butyl)-1H-[1,2,3]triazol-4-ylmethyl]-amino}-6-morpholin-4-yl-pyrimidin-4-ylamino)-piperidin-1-yl]-ethyl}-phosphonic Acid Hydrobromide Salt], for which the activation at 1 µM was 8 to 11% under setting [1] and 11% under setting [2].

Regarding `O=P(O)(O)CCN1CCC(Nc2cc(N3CCCCC3)nc(NCc3cn(CCCO)nn3)n2)CC1` [CN022, {2-[4-(2-{[1-(3-Hydroxy-propyl)-1H-[1,2,3]triazol-4-ylmethyl]-amino}-6-piperidin-1-yl-pyrimidin-4-ylamino)-piperidin-1-yl]-ethyl}-phosphonic Acid Hydrobromide Salt], the activation at 1 µM stood at 6 ± 0.78% under setting [1] and 6% under setting [2].

In the case of `COC(=O)CCOCCCn1cc(CNc2nc(NC3CCN(CCC(=O)OC)CC3)cc(N3CCOCC3)n2)nn1` [CN011, 3-{3-[4-({4-[1-(2-Methoxycarbonyl-ethyl)-piperidin-4-ylamino]-6-morpholin-4-yl-pyrimidin-2-ylamino}-methyl)-[1,2,3]triazol-1-yl]-propoxy}-propionic Acid Methyl Ester], the activation at 1 µM by setting is: under setting [3], 4 ± 4.1%; under setting [2], 4%.

As to `CCOP(=O)(CCN1CCC(Nc2cc(N3CCOCC3)nc(NCc3ccc(CCO)cc3)n2)CC1)OCC` [CN018, Diethyl(2-(4-((2-((4-(2-hydroxyethyl)benzyl)amino)-6-morpholinopyrimidin-4-yl)amino)piperidin-1-yl)ethyl)phosphonate], the activation at 1 µM is, setting by setting: under setting [3], 3 ± 2.2%; under setting [2], 3%. The “protective efficacy against paclitaxel-induced neurotoxicity (in words)” value (“protective efficacy” below) (DRG neurons) was “inactive”.

Take `O=P(O)(O)CCN1CCC(Nc2cc(N3CCOCC3)nc(NCc3ccc(CCO)cc3)n2)CC1` [CN019]: the activation at 1 µM was -2 ± 1.2% under setting [3] and -2% under setting [2]. Besides, under “DRG neurons”, the “protective efficacy” value was “inactive”.

In the case of `NCCOCCn1cc(CNc2nc(NC3CCN(C(=O)CCNC(=O)C4(O)CC(O)C(O)C(O)C4)CC3)cc(N3CCOCC3)n2)nn1` (stereo not shown) [CN008, 1,3,4,5-Tetrahydroxy-cyclohexanecarboxylic Acid (3-{4-[2-({1-[2-(2-Amino-ethoxy)-ethyl]-1H-[1,2,3]triazol-4-ylmethyl}-amino)-6-morpholin-4-yl-pyrimidin-4-ylamino]-piperidin-1-yl}-3-oxo-propyl)-amide Hydrochloride Salt], the activation at 1 µM is 4 ± 1.44% under setting [3] and 4% under setting [2].

As to `CCOP(=O)(CCN1CCC(Nc2cc(N3CCOCC3)nc(NCc3cn(CCCO)nn3)n2)CC1)OCC` [CN012, {2-[4-(2-{[1-(3-Hydroxy-propyl)-1H-[1,2,3]triazol-4-ylmethyl]-amino}-6-morpholin-4-yl-pyrimidin-4-ylamino)-piperidin-1-yl]-ethyl}-phosphonic Acid Diethyl Ester], the activation at 1 µM is, setting by setting: under setting [1], 12 ± 1%; under setting [3], 9 ± 1%; under setting [2], 9%. For the same molecule, under “DRG neurons”, the “protective efficacy” value is “exhibited protective efficacy”.

As to `O=P(O)(O)CCN1CCC(Nc2cc(N3CCSCC3)nc(NCc3cn(CCCO)nn3)n2)CC1` [CN023, {2-[4-(2-{[1-(3-Hydroxy-propyl)-1H-[1,2,3]triazol-4-ylmethyl]-amino}-6-thiomorpholin-4-yl-pyrimidin-4-ylamino)-piperidin-1-yl]-ethyl}-phosphonic Acid Hydrobromide Salt], the activation at 1 µM under setting [1] was determined as 4 ± 1.43% and the activation at 1 µM under setting [2] is 4%.

Consider `O=P(O)(O)CCN1CCC(Nc2cc(N3CCOCC3)nc(NCc3cn(CCO)nn3)n2)CC1` [CN020, (2-(4-((2-(((1-(2-Hydroxyethyl)-1H-1,2,3-triazol-4-yl)methyl)amino)-6-morpholinopyrimidin-4-yl)amino)piperidin-1-yl)ethyl)phosphonic Acid Hydrobromide Salt], for which the activation at 1 µM reads like this: under setting [1], 8 to 11%; under setting [2], 8%.

`COC(=O)CCOCCCn1cc(CNc2nc(NC3CCN(Cc4ccc5ccccc5c4)CC3)cc(N3CCOCC3)n2)nn1` [CN005, 3-[3-(4-{[4-Morpholin-4-yl-6-(1-naphthalen-2-ylmethyl-piperidin-4-ylamino)-pyrimidin-2-ylamino]-methyl}-[1,2,3]triazol-1-yl)-propoxy]-propionic Acid Methyl Ester]: the activation at 1 µM was -3 ± 0.41% under setting [3] and -3% under setting [2].

With `CCOP(=O)(CCN1CCC(Nc2cc(N3CCOCC3)nc(NCc3cn(CCC(C)O)nn3)n2)CC1)OCC` (stereo not shown) [CN014, {2-[4-(2-{[1-(3-Hydroxy-butyl)-1H-[1,2,3]triazol-4-ylmethyl]-amino}-6-morpholin-4-yl-pyrimidin-4-ylamino)-piperidin-1-yl]-ethyl}-phosphonic Acid Diethyl Ester], the activation at 1 µM by setting is: under setting [3], 9 ± 2%; under setting [2], 9%. In addition, for the setting “DRG neurons”, the “protective efficacy” value was “exhibited protective efficacy”.

For `CC(O)CCn1cc(CNc2nc(NC3CCN(CCP(=O)(O)O)CC3)cc(N3CCOCC3)n2)nn1` (stereo not shown) [CN026, {2-[4-(2-{[1-(3-Hydroxy-butyl)-1H-[1,2,3]triazol-4-ylmethyl]-amino}-6-morpholin-4-yl-pyrimidin-4-ylamino)-piperidin-1-yl]-ethyl}-phosphonic Acid Hydrobromide Salt], the activation at 1 µM is, setting by setting: under setting [1], 11 ± 1.48%; under setting [2], 11%.

Regarding `COCCCn1cc(CNc2nc(NC3CCN(CCC(=O)OC)CC3)cc(N3CCOCC3)n2)nn1` [CN010, 3-[4-(2-{[1-(3-Methoxy-propyl)-1H-[1,2,3]triazol-4-ylmethyl]-amino}-6-morpholin-4-yl-pyrimidin-4-ylamino)-piperidin-1-yl]-propionic Acid Methyl Ester], the activation at 1 µM reads like this: under setting [3], 5 ± 3.06%; under setting [2], 5%.

On to `COC(=O)CCN1CCC(Nc2cc(N3CCOCC3)nc(NCCCCCCO)n2)CC1` [CN017, Methyl 3-(4-((2-((6-Hydroxyhexyl)amino)-6-morpholinopyrimidin-4-yl)amino)piperidin-1-yl)propanoate], for which the activation at 1 µM is, setting by setting: under setting [3], 1 ± 0.51%; under setting [2], 1%. For the same molecule, the “protective efficacy” value (DRG neurons) is “inactive”.

In the case of `NCCCn1cc(CNc2nc(NC3CCN(C(=O)CCNC(=O)C4(O)CC(O)C(O)C(O)C4)CC3)cc(N3CCOCC3)n2)nn1` (stereo not shown) [CN006, 1,3,4,5-Tetrahydroxy-cyclohexanecarboxylic Acid {3-[4-(2-{[1-(3-Amino-propyl)-1H-[1,2,3]triazol-4-ylmethyl]-amino}-6-morpholin-4-yl-pyrimidin-4-ylamino)-piperidin-1-yl]-3-oxo-propyl}-amide Hydrochloride Salt], the activation at 1 µM came out at 4 ± 1.44% under setting [3] and 4% under setting [2].

Consider `CCOP(=O)(CCN1CCC(Nc2cc(N3CCOCC3)nc(NCc3cn(CCCOCCC(=O)OC)nn3)n2)CC1)OCC` [CN015, 3-(3-{4-[(4-{1-[2-(Diethoxy-phosphoryl)-ethyl]-piperidin-4-ylamino}-6-morpholin-4-yl-pyrimidin-2-ylamino)-methyl]-[1,2,3]triazol-1-yl}-propoxy)-propionic Acid Methyl Ester], for which the activation at 1 µM by setting is: under setting [3], 3 ± 1.11%; under setting [2], 3%.

Regarding `CC(O)Cn1cc(CNc2nc(NC3CCN(CCP(=O)(O)O)CC3)cc(N3CCOCC3)n2)nn1` (stereo not shown) [CN025, {2-[4-(2-{[1-(2-Hydroxy-propyl)-1H-[1,2,3]triazol-4-ylmethyl]-amino}-6-morpholin-4-yl-pyrimidin-4-ylamino)-piperidin-1-yl]-ethyl}-phosphonic Acid Hydrobromide Salt], the activation at 1 µM was 4 ± 0.63% under setting [1] and 4% under setting [2].

As to `OCCCn1cc(CNc2nc(NC3CCN(Cc4ccccc4)CC3)cc(N3CCOCC3)n2)nn1` [CN004, 3-(4-{[4-(1-Benzyl-piperidin-4-ylamino)-6-morpholin-4-yl-pyrimidin-2-ylamino]-methyl}-[1,2,3]triazol-1-yl)-propan-1-ol], the activation at 1 µM under setting [1] is -1 ± 3.2%, the activation at 1 µM under setting [3] was determined as 1 ± 3.2% and the activation at 1 µM under setting [2] was found to be 1%.
